Laboratory results taken from US8906115B2, “Method for the antimicrobial finishing of textiles and fibers” (Sanitized AG, priority 2006, dated 2014).

Tested on: Staphylococcus aureus 6538 P
Test: antibacterial effect / germ reduction of finished textiles after washing, test standard not stated
Assay type: cell-based
Conditions: less pronounced than tannic acid, gallic acid, stearic acid or L-phenylalanine
Experimental: The two samples finished in this way are washed at 40° C. and dried between the washing cycles. After 20 and 30 washing cycles, the antibacterial effect against Staphylococcus aureus 6538 P is tested.
In an experimental finishing. 14 kilograms of an orange colored tricot made of polyester/polyamide/elastan are prewashed at 60° C., then 280 grams of L-phenylalanine and 110 liters of water are added. Allow to prerun for 10 minutes, heated to 60° C. at 3° C. per minute and left to run for 15 minutes at 60° C. 80 grams of Sanitized T 99-19 in 2 liters of water are added and left to run for a further 30 minutes at 60° C. The liquor is cooled to 35° C. and then drawn off. 40 liters of water for rinsing are added, left to run for two minutes and the rinse water is drawn off. The textile is discharged via press-off rolls and dried on a tenter at 120° C. After 50 washing cycles in accordance with EN ISO 6330 (6A), washed with the colorfast detergent according to ECE 77, a sample achieves a germ count reduction of factor 100 (log reduction=2.0) compared with the inoculum.

## CCCCCCCCCCCCCCCCCCN [octadecylamine]
  antimicrobial effect after washing when used as primer (P), in words: improvement in the antimicrobial effect after washing

## O=C(O)c1ccc(C(=O)O)cc1 [terephthalic acid, benzene-1,4-dicarboxyolic acid]
  antimicrobial effect after washing when used as primer (P), in words: improvement in the antimicrobial effect after washing
